{
  "source": "PubChem BioAssay AID2305",
  "about": "(GlaxoSmithKline (GSK), 2010)",
  "data": [
    {"system": "P. falciparum 3D7 growth, pLDH absorbance", "assay": "blood-stage malaria parasite growth potency – strain 3D7, dose response (AID 2305)", "units": {"IC50": "nM"}, "values": [
      {"smiles": "COc1cccc(N(CCCN2C(=O)c3cccc4cccc(c34)C2=O)C(=O)c2ccccc2C)c1", "IC50": 790},
      {"smiles": "c1ccc2[nH]c(-c3ccc(-c4ccc(CNC5CC5)cc4)s3)nc2c1", "IC50": 1050},
      {"smiles": "Nc1ncnc2c1ncn2C(CO)Cc1ccc(O)cc1", "note": "(centres undefined)", "IC50": 1030},
      {"smiles": "O=C(NC1CCN(Cc2ccccc2)CC1)c1csc2nc(-c3ccc(Cl)cc3)cn12", "IC50": 910},
      {"smiles": "COc1ccccc1NC(=O)Nc1ccc(-c2ccc(-c3nc4c(C)cccc4[nH]3)s2)cc1", "IC50": 160},
      {"smiles": "CCCCCCCN1CC[C@@H](CCCc2ccnc3ccc(OCCN4CCOCC4)cc23)[C@@H](CC)C1", "IC50": 910},
      {"smiles": "O=C1OC2(CN1CC1CCN(Cc3ccc(O)c(Cl)c3)CC1)c1ccccc1-c1ccccc12", "IC50": 760},
      {"smiles": "CC(CCCCC(=O)Nc1ccc(CC(C)NCCc2cccc(Cl)c2)cc1)NCCc1cccc(Cl)c1", "note": "(centres undefined)", "IC50": 1010},
      {"smiles": "Clc1ccc(-c2cnc3ccc(NCc4ccncc4)nn23)cc1", "IC50": 890},
      {"smiles": "Cc1cc(N[C@@H](Cc2ccccc2)C(=O)NC2CCCC2)nc(NCCc2ccc(F)cc2)n1", "IC50": 800},
      {"smiles": "COc1cccc2c(C)cc(NCc3ccc(Cl)cc3)nc12", "IC50": 860},
      {"smiles": "Ic1cc(CNC2CCCCC2)ccc1OCc1cccc(COc2ccc(CNC3CCCCC3)cc2I)c1", "IC50": 830},
      {"smiles": "COc1ccc(NC(=O)c2ccc(NC(=O)c3ccc(Cl)cc3)cc2)cc1N1CCN(C)CC1", "IC50": 850},
      {"smiles": "COc1ccc(C2CCN(CCN3CCC(NC(=O)c4cccc(-c5ccncc5)c4)CC3)CC2)c(OC)c1", "IC50": 800},
      {"smiles": "O=[N+]([O-])c1ccc(C=NO)nc1", "IC50": 870},
      {"smiles": "N#Cc1ccc2[nH]cc(CN3CCC4(CC3)CN(CCNCc3ccccc3)C(=O)O4)c2c1", "IC50": 1160},
      {"smiles": "CCCC(C)N(Cc1ccc(C(C)(C)C)cc1)C(=O)c1cccc(OC)c1", "note": "(centres undefined)", "IC50": 340},
      {"smiles": "O=C(Nc1ccc(Cl)cc1)N(CC1C[C@H]2CC[C@@H](C1)N2Cc1ccc(C(F)(F)F)cc1)c1ccc(N2CCOCC2)c(F)c1", "note": "(some centres undefined)", "IC50": 1070},
      {"smiles": "Cc1cc(C2CCN(CCCCNC(=O)c3ccc(NC(=O)c4ccc(Cl)cc4)cc3)CC2)c(C)cc1OCc1ccccn1", "IC50": 800},
      {"smiles": "Cc1cc(Cl)ccc1NC(=O)Nc1ccc2nccc(N3CCN(C)CC3)c2c1", "IC50": 390},
      {"smiles": "CC(CNC(=O)C(c1cc2ccccc2o1)N1CCN(C(c2ccccc2)c2ccccc2)CC1)c1ccccc1", "note": "(centres undefined)", "IC50": 630},
      {"smiles": "CCC[C@@H]([C@@H](CC(C)C)C(=O)N[C@H](C(=O)Nc1nccs1)C(C)(C)SCCNC(=O)OCC)N(O)C=O", "IC50": 170},
      {"smiles": "Cc1ccccc1OCCCN1CCN(CC(c2ccc(F)cc2)N2CCN(C(C)C)CC2)CC1", "note": "(centres undefined)", "IC50": 1410},
      {"smiles": "Fc1ccc2nc(-c3cccc(-c4cccc(CNCCN5CCNCC5)c4)c3)[nH]c2c1", "IC50": 840},
      {"smiles": "NC(N)=Nc1ccc(Cc2ccc(N=C(N)N)cc2)cc1", "IC50": 260},
      {"smiles": "Cc1ccc(C(=O)N2CCc3cc4nccc(N5CCN6CCC[C@H]6C5)c4cc32)cc1", "IC50": 1100},
      {"smiles": "Cc1cccc2[nH]c(-c3ccc(-c4cccc(NC(=O)CCc5cnc[nH]5)c4)cc3)nc12", "IC50": 410},
      {"smiles": "CC(Sc1n[nH]c(-c2cccs2)n1)C(=O)c1c[nH]c2ccccc12", "note": "(centres undefined)", "IC50": 1800},
      {"smiles": "Cc1ccc(C(=O)Cn2nc(-c3ccc(C)c(S(=O)(=O)N4CCCC4)c3)ccc2=O)cc1", "IC50": 510},
      {"smiles": "CCCNC(=O)c1cncc(-c2ccc(CNC3Cc4ccccc4C3)cc2)c1", "IC50": 850},
      {"smiles": "CCNc1cc(C(=O)N[C@@H](Cc2ccccc2)[C@H](O)CNC(CC)c2cccc(Cl)c2)cc(N2CCCCS2(=O)=O)c1", "note": "(some centres undefined)", "IC50": 50},
      {"smiles": "Cc1ccc(F)cc1S(=O)(=O)N1CCCCC(c2ccc(C(F)(F)F)cc2)=N1", "IC50": 940},
      {"smiles": "Cc1ccc(-c2ccn(Cc3ccc(OCc4ccccc4)cc3)n2)cn1", "note": "(tested in a mixture with another compound)", "IC50": 670},
      {"smiles": "COc1c(C2CCN(CCCCNC(=O)c3cc(-c4ccc(Cl)cc4)sc3C)CC2)ccc2c1CCCC2", "IC50": 630},
      {"smiles": "O=C(/C=C/c1ccsc1)N1CCC(CCN2CCC(c3c[nH]c4ccccc34)CC2)CC1", "IC50": 910},
      {"smiles": "Cc1nc(N)nc(N)c1Oc1cccc(Cl)c1", "IC50": 870},
      {"smiles": "CC1=C(C(=O)OC(C)C)C(c2ccccc2Cl)C2=C(CC(c3ccccc3)CC2=O)N1", "note": "(centres undefined)", "IC50": 850},
      {"smiles": "CC(C)C[C@H](Nc1ccnc(NCC2CCCCC2)n1)C(=O)Nc1ccccc1", "IC50": 1430},
      {"smiles": "COc1ccc(NC(=O)NC2CCN(c3ccnc4cc(Cl)ccc34)CC2)cc1", "IC50": 730},
      {"smiles": "O=C(/C=C/c1ccc(Cl)c(Cl)c1)NCCCCCN1CCC(CCNC(=O)/C=C/c2cc(C(F)(F)F)ccc2F)CC1", "IC50": 770},
      {"smiles": "CCCC(C)Nc1nc(C)cc(N[C@@H](Cc2ccccc2)C(=O)Nc2ccc(OC)cc2)n1", "note": "(some centres undefined)", "IC50": 1120},
      {"smiles": "CN1c2ccccc2Sc2cc(CNCCSCCNCc3ccc4c(c3)Sc3ccccc3N4C)ccc21", "IC50": 1010},
      {"smiles": "Cc1[nH]c2ccccc2c(=O)c1Br", "IC50": 840},
      {"smiles": "O=C(c1cccc(-c2ccc(-c3nc4ccc(F)cc4[nH]3)s2)c1)N1CCCCC1CN1CCC(O)C1", "note": "(centres undefined)", "IC50": 720},
      {"smiles": "Cc1cc(NCCC(=O)Nc2ccccc2)nc(NCCOc2ccccc2)n1", "IC50": 1140},
      {"smiles": "CC(C)CCN=C(N)c1ccc(OCCCCCOc2ccc(C(N)=NCCC(C)C)cc2)cc1", "IC50": 530},
      {"smiles": "CC(C)CNCc1cccc(-c2cccc(CN(CCN(C)C)C(=O)Nc3ccccc3)c2)c1", "IC50": 800},
      {"smiles": "CC(=O)c1ccc(NC(=O)C2c3ccccc3C(=O)N(CC(C)C)C2c2cccs2)cc1", "note": "(centres undefined)", "IC50": 1320},
      {"smiles": "Cc1csc(-c2nc(NCc3cccnc3)ncc2-c2ccsc2)n1", "IC50": 1190}
    ]}
  ]
}
